“And” between values parts separate entries of the source, which are not always exact repeats. Equal values may be shown once. A value given as a limit tells only on which side of the number the result lay.

The test concerns NCI-H196 complex spheroid growth, percent test/control. In words: Anticancer human tumor NCI-H196 cell line growth inhibition [AhR].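 On all read-outs here: seven days of drug exposure starting three days after plating.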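 On viability, T/C: 100% = DMSO vehicle control wells.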 To be noted: for viability, T/C: stronger effect = lower value. The source says:
Multicellular complex tumor spheroid response to aryl hydrocarbon receptor antagonists in combination with a variety of drugs and investigational agents in selected tumor cell lines
The current study was undertaken to assess response to aryl hydrocarbon receptor antagonists in combination with standard-of-care drugs and investigational agents in solid tumor complex spheroid models. Complex spheroids include a stromal component modeled by human endothelial cells (HUVEC) and fibroblasts modeled by human mesenchymal stem cells (MSCs). The concentration ranges selected for each drug and investigational agent were based upon clinically achievable concentrations if the clinical Cmax of the agent was known.
Compounds. The drugs and investigational agents: BAY 2416964 (NSC825713), GNF351 (NSC835774), CH-223191 (NSC835775), CPI-455 (NSC825282), aza-TdCyd (NSC777586), decitabine (NSC127716), belinostat (NSC758774), entinostat (NSC756642), pevonedistat (NSC761192), tazemetostat (NSC777109), talazoparib (NSC765396), olaparib (NSC753686), selinexor (NSC780203), nedisertib (M3814, NSC802822), bortezomib (NSC756655), venetoclax (NSC766270), doxorubicin (NSC123127), elimusertib (BAY189344, NSC800525), ceralasertib (AZD6738, NSC777638), TAK-243 (NSC785004), alisertib (NSC759677), etoposide (NSC141540), topotecan (NSC609699), eribulin (NSC707389), gemcitabine (NSC613327), carboplatin (NSC241240), cisplatin (NSC119875), and SN-38 (NSC673596) were obtained from the National Cancer Institute (NCI) Developmental Therapeutics Program Chemical Repository (32). The FDA-approved anticancer drug set is available from the Developmental Therapeutics Program at https://dtp.cancer.gov/organization/dscb/obtaining/available plates.htm. […] The stock solutions were prepared in dimethyl sulfoxide (DMSO, Sigma-Aldrich, St. Louis, MO, cat. D2650), except for the platinum compounds which were prepared in saline (Quality Biological, Gaithersburg, MD, cat. 114-055-101), at 800-fold the tested concentration and stored at -70 degrees C prior to their use. All drugs and investigational agents were tested over a range starting from a high concentration at or near the clinical Cmax and decreasing in half-log increments. If the clinical Cmax for an agent had not been determined, the highest concentration tested was 10 microM (Table 1).
Cell Culture. All cells were maintained in an incubator at 37 degrees C and 5% CO2 with 95% humidity. The PDC lines were cultured according to standard operating procedures established by the NCI PDMR (https://pdmr.cancer.gov). Briefly, all PDCs were thawed and cultured in Matrigel-coated flasks prepared with a working solution of 1X Ham's F-12 nutrient mix, without supplementation (Invitrogen, Waltham, MA, cat. 11765054), 100 U/mL penicillin-streptomycin (Invitrogen, cat. 15140122), and 2.5% Matrigel (Corning Inc., Corning, NY, cat. 354248) for the first three passages. All PDCs were cultured in complete DMEM/F-12 media containing advanced DMEM/F-12 (Invitrogen, cat. 12634028), 4.9% defined fetal bovine serum, heat inactivated (HyClone Laboratories Inc., Logan, UT, cat. SH30070.03HI), 389 ng/mL hydrocortisone (Sigma-Aldrich, cat. H4001), 9.7 ng/mL human EGF recombinant protein (Invitrogen, cat. PHG0313), 23.4 microg/mL adenine (Sigma-Aldrich, cat. A2786), 97.3 U/mL penicillin-streptomycin (Invitrogen, cat. 15140122), 1.9 mM L-glutamine (Invitrogen, cat. 25030081), and 9.7 microM Y-27632 dihydrochloride (Tocris Bioscience, Bristol, United Kingdom, cat. 1254). The PDCs were cultured in complete DMEM/F12 media without 10 microM Y-27632 dihydrochloride for at least two passages prior to the screen. The established cell lines NCI-H1341 and […] were cultured in DMEM/F-12, HEPES (Invitrogen, cat. 11330032), 5% defined fetal bovine serum (HyClone Laboratories Inc., cat. SH30070.03), ITS premix universal culture supplement [insulin (5 microg/mL), transferrin (5 microg/mL), and selenious acid (5 ng/mL)] […]

Broadly, the viability, T/C is the ratio of treated to control. One may read the IC50 as the concentration needed to halve the response being measured. On to `CC(C)c1c(-c2ccccc2)nc2c(C#N)c[nH]n2c1=O`, for which the viability, T/C was 97.3% and 97% and 111% (compound 0.0316 µM); 104% and 102% and 106% (compound 0.1 µM); 109% and 92.1% and 112% (compound 0.316 µM); 102% (2×) and 101% (compound 1 µM); 101% and 102% and 110% (compound 3.16 µM); 103% and 97.7% and 96.4% (compound 10 µM). Moreover, the IC50 (curve of compound) is more than 10 µM.

For `CC(CO)NC(=O)c1cc(-c2ccc(Cl)cc2)nn(-c2cnn(C)c2)c1=O` (stereo not given), the viability, T/C was 105% [middle of 21 runs] (compound 1 µM) and 106% [middle of 19 runs] (compound 3.16 µM). Also, the IC50 (compound alone, run of 08/08/2022) was more than 10 µM.

`CC1(C)CCC(CN2CCN(c3ccc(C(=O)NS(=O)(=O)c4ccc(NCC5CCOCC5)c([N+](=O)[O-])c4)c(Oc4cnc5[nH]ccc5c4)c3)CC2)=C(c2ccc(Cl)cc2)C1`: the viability, T/C runs as follows: (compound 0.0316 µM) 98.2% and 106% and 89%; (compound 0.1 µM) 110% and 103% and 101%; (compound 0.316 µM) 109% and 97.2% (2×); (compound 1 µM) 109% and 103% and 96.6%; (compound 3.16 µM) 93.8% and 103% and 99.2%; (compound 10 µM) 104% and 72.5% and 89.6%. The IC50 (curve of compound) is more than 10 µM.

`CC1COCCN1c1cc(C2(S(C)(=N)=O)CC2)nc(-c2ccnc3[nH]ccc23)n1` (stereo not given): the viability, T/C was 99.9% and 98.5% and 104% (compound 0.0316 µM); 100% and 104% and 96% (compound 0.1 µM); 104% (2×) and 95.2% (compound 0.316 µM); 88% and 95.2% and 97.4% (compound 1 µM); 97.7% and 93.7% and 85% (compound 3.16 µM); 69.4% and 81% and 77.6% (compound 10 µM). For the same molecule, under “curve of compound”, the IC50 is more than 10 µM.

For the molecule `COc1cc(C2c3cc4c(cc3C(OC3OC5COC(C)OC5C(O)C3O)C3COC(=O)C23)OCO4)cc(OC)c1O` (stereo not given), the viability, T/C reads like this: (compound 0.0316 µM) 114% and 96.5% and 94.6%; (compound 0.1 µM) 103% and 110% and 111%; (compound 0.316 µM) 122% and 107% and 91.5%; (compound 1 µM) 94.3% and 121% and 94.5%; (compound 3.16 µM) 93.5% and 114% and 91.3%; (compound 10 µM) 90.1% and 89.2% and 76.2%. Also, the IC50 (curve of compound) is more than 10 µM.

Regarding `COc1cc(Nc2ncc3c(n2)-c2ccc(Cl)cc2C(c2c(F)cccc2OC)=NC3)ccc1C(=O)O`, the viability, T/C was 91.6% and 84.6% and 104% (compound 0.0316 µM); 92.1% and 90.5% and 106% (compound 0.1 µM); 109% and 92.9% and 107% (compound 0.316 µM); 117% and 90.2% and 116% (compound 1 µM); 114% and 120% and 121% (compound 3.16 µM); 125% and 108% and 132% (compound 10 µM). In addition, the IC50 (curve of compound) is more than 10 µM.

`COc1ccc([C@@H](O)c2cc(-c3ncnc4cc(N5CCOCC5)ccc34)c(F)cc2Cl)nn1`: the viability, T/C (compound 0.0316 µM) is 100% and 96% and 105%; the viability, T/C (compound 0.1 µM) was 97.1% and 92.7% and 93.5%; the viability, T/C (compound 0.316 µM) was 97% and 91.1% and 94.3%; the viability, T/C (compound 1 µM) was 89.2% and 84.2% and 89.9%; the viability, T/C (compound 3.16 µM) was 85.3% and 81.3% and 89.7%; the viability, T/C (compound 10 µM) is 77.3% and 69% and 71.9%. For the same molecule, for the setting “curve of compound”, the IC50 was more than 10 µM.

On to `Cc1ccccc1N=Nc1ccc(NC(=O)c2ccnn2C)c(C)c1`, for which the viability, T/C reads like this: (compound 0.1 µM) 96.4% [middle of 20 runs]; (compound 0.316 µM) 98% [middle of 20 runs]; (compound 3.16 µM) 95.8% [middle of 20 runs]; (compound 10 µM) 93.3% [middle of 20 runs]. For the same molecule, the IC50 (compound alone, run of 08/22/2022) is more than 10 µM.

With `Cc1cncc(-c2nc(NCCc3c[nH]c4ccccc34)c3ncn(C(C)C)c3n2)c1`, the viability, T/C reads like this: (compound 0.1 µM) 96.5% [middle of 20 runs]; (compound 0.316 µM) 99% [middle of 20 runs]; (compound 1 µM) 101% [middle of 20 runs]; (compound 3.16 µM) 106% [middle of 20 runs]. For the same molecule, the IC50 (compound alone, run of 08/16/2022) was more than 10 µM.

As for `NS(=O)(=O)OCC1CC(n2ccc3c(NC4CCc5ccccc54)ncnc32)CC1O` (stereo not given), the viability, T/C (compound 0.0316 µM) is 78.8% and 89.8% and 79.4%; the viability, T/C (compound 0.1 µM) was 71.8% and 85.1% and 80.3%; the viability, T/C (compound 0.316 µM) is 92% and 82% and 79.9%; the viability, T/C (compound 1 µM) was 52.6% and 59.9% and 65.8%; the viability, T/C (compound 3.16 µM) was 74.1% and 65.6% and 55.6%; the viability, T/C (compound 10 µM) was 69.5% and 70.9% and 55.7%. The IC50 (curve of compound) is more than 10 µM.

Consider `Nc1ccccc1NC(=O)c1ccc(CNC(=O)OCc2cccnc2)cc1`, for which the viability, T/C was 84.5% and 90.6% and 85.8% (compound 0.0316 µM); 73.3% and 82.2% and 79.5% (compound 0.1 µM); 59.8% and 65.2% and 60.3% (compound 0.316 µM); 35.9% and 48.4% and 33.5% (compound 1 µM); 15.2% and 17.5% and 16.5% (compound 3.16 µM); 0.66% and 0.89% and 0.63% (compound 10 µM). Also, the IC50 (curve of compound) is 0.492 µM and 0.773 µM and 0.509 µM.

With `Nc1ccn(C2OC(CO)C(O)C2(F)F)c(=O)n1` (stereo not given), the viability, T/C reads like this: (compound 0.0316 µM) 72.3% and 95.5% and 90.8%; (compound 0.1 µM) 57.2% and 87.9% and 86.6%; (compound 0.316 µM) 46.1% and 58.9% and 65.1%; (compound 1 µM) 50.2% and 56.8% and 62.2%; (compound 3.16 µM) 61.4% and 61.8% and 66.2%; (compound 10 µM) 56.5% and 68.2% and 66.8%. Also, the IC50 (curve of compound) is 10 µM and > 10 µM.

`O=C(C=Cc1cccc(S(=O)(=O)Nc2ccccc2)c1)NO`: the viability, T/C is, setting by setting: (compound 0.0316 µM) 93.5% and 93.7% and 104%; (compound 0.1 µM) 107% and 95.2% and 101%; (compound 0.316 µM) 78.8% and 87.2% and 93.9%; (compound 1 µM) 61.2% and 73.3% and 75.5%; (compound 3.16 µM) 21.6% and 27.8% and 22.7%; (compound 10 µM) 0.64% and 0.72% and 0.55%. For the same molecule, the IC50 (curve of compound) was 1.32 µM and 1.79 µM and 1.73 µM.

For `O=C(c1cc(Cc2n[nH]c(=O)c3ccccc23)ccc1F)N1CCN(C(=O)C2CC2)CC1`, the viability, T/C (compound 0.0316 µM) was 106% and 105% and 100%; the viability, T/C (compound 0.1 µM) was 105% and 112% and 108%; the viability, T/C (compound 0.316 µM) is 99.7% and 98.5% and 104%; the viability, T/C (compound 1 µM) is 97.2% and 98.1% and 105%; the viability, T/C (compound 3.16 µM) was 97.2% and 96.9% and 99.9%; the viability, T/C (compound 10 µM) is 99.7% and 103% and 99.5%. Further, under “curve of compound”, the IC50 was more than 10 µM.

(Values after PubChem BioAssay AID1919016 (Molecular Pharmacology Branch, DTP, NCI, 2023).)
